Read-outs that look alike come from different tables or passages of the source. One block for each compound: values may come before it.
How the values were obtained:
[1] = system: Caco2 monolayer; details: for glutathione diffusion across Caco2: human, 10 mM
Procedure: (§1) Again, undyed isotonic DPBS as receiver and donor buffer rather than HBSS was used due to interference with HBSS components in the HPLC. […] Samples were taken at 15 minute intervals for 90 minutes and replaced with fresh isotonic DPBS. Samples were taken from donor chamber at time 0 and at 90 minutes.

[2] = system: Caco2 monolayer; assay: Iso-leucine permeability through Caco2 monolayer with/without TSC (Example IX); format: in vitro ADME, human; details: for iso-leucine diffusion across Caco2: 10 mM in DPBS
Procedure: (§2) Undyed isotonic DPBS was used as receiver and donor buffer rather than HBSS due to interference with HBSS components and Valine in the HPLC. In brief 3 mM 10 mM Isoleucine or Valine in DPBS alone or with 10 mM trisodium citrate was added to the donor chamber of each of 3 side by side diffusion cells with a confluent Caco 2 Monolayer between (TEER˜900 Ohm*cm2). […] Below are the results of this study in table form, which are graphically illustrated in FIG. 16.

[3] = system: Caco 2 Monolayer; assay: L-Arginine and L-Citrulline diffusion across Caco2 monolayer with/without TSC (Example III); format: in vitro ADME, human; details: for arginine diffusion across Caco2: human, 10 mM; for citrulline diffusion across Caco2: 10 mM in DPBS
Procedure: Thereafter, further diffusion studies were undertaken using a Caco-2 cellular model similar to that described in connection with Example II above. Four formulations were studied, with chemicals present at 10 mM: […]
For these experiments undyed isotonic DPBS was used as the receiver and donor buffer rather than HBSS due to interference with HBSS components in the HPLC. […] Below are the results of these studies.

[4] = system: Caco2 monolayer; format: in vitro ADME, human; details: for arginine diffusion across Caco2: human, 10 mM
Excerpt: In further experiments were undertaken using a Caco-2 cellular model similar to that described in connection with Example II above. […] For these experiments undyed isotonic DPBS was used as receiver and donor buffer rather than HBSS due to interference with HBSS components in the HPLC. […] The results of these studies in graphical form are illustrated in FIGS. 6 and 7.

[5] = system: Caco2 monolayer; assay: L-Citrulline and L-Leucine permeability through Caco2 monolayer with/without TSC (Example V); format: in vitro ADME, human; details: for citrulline diffusion across Caco2: 10 mM each in DPBS
Procedure: as §1, with “isotonic DPBS was used as receiver” for “isotonic DPBS as receiver”, “than HBSS due to” for “than HBSS was used due to”

[6] = system: Caco-2 monolayer; assay: Leucine permeation across Caco-2 model intestinal barrier (Example I); format: in vitro ADME, human
Excerpt: Initially, in order to make a meaningful evaluation of sodium transport of branched-chain amino acids across eukaryotic mucosal cells of the human digestive tract, the inventors elected to test leucine transport using the Caco-2 monolayer model similar to that described by Dash, et al. in “Evaluation of Creatine Transport Using Caco-2 Monolayers” id. The tests were undertaken using a Caco-2 cells so as to more closely approximate transport of creatine and branched-chain amino acids across mucosal cell membranes in vivo than might be reflected in other utilizing non-human cell sources or non-mucosa cell sources. In the permeation tests illustrated herein, simulated gastric and intestinal buffers were made with 0.2 normal (N) NaOH, made by mixing 1 g NaOH as needed with 125 mL deionized water. To simulate intestinal fluid without enzymes, 6.8 g monobasic potassium phosphate were mixed in 77 mL 0.2 N sodium hydroxide, and pH adjusted to 6.8±0.1 using NaOH or HCl, as needed. Thereafter, the solution was diluted to 1 L with deionized water, with a final pH of about 6.8±0.1. To simulate gastric fluid without enzymes, 2.0 g sodium chloride was added to 7.0 mL concentrated HCl, and then diluted to 1 L with deionized water. The pH was approximately 1.2
A repetition in a series of three repetitions was then undertaken to examined the changes in permeation in the presence of a different form of sodium as compared to leucine alone in Hank's Balanced salt solution across a Caco-2 model intestinal barrier (TEER≥1000 ohm*cm2). […] Leucine permeation across the Caco-2 monolayer was measured at 15, 30, 45, 60, 75 and 90 minutes after test initiation in milligrams of leucine per centimeter2 (mg/cm2). Data is summarized in Table I below and illustrated in FIG. 1.

[7] = system: Caco2 monolayer; assay: Sarcosine and L-Leucine permeability through Caco2 monolayer with/without TSC (Example VI); format: in vitro ADME, human; details: for sarcosine diffusion across Caco2: 10 mM each in DPBS, estimation by subtraction
Excerpt: On analysis it was discovered that a peak in the receiver side samples which had not interfered with previous samples eluted at the same time as the Sarcosine. The results were adjusted by averaging this peak from time points in previous studies and accordingly, the results represent an estimation by subtraction.

[8] = system: Caco2 monolayer; assay: Valine permeability across Caco2 monolayer with/without TSC (Example X); format: in vitro ADME, human; details: for valine diffusion across Caco2: 10 mM in DPBS
Procedure: as §2, with “mM” for “mM Isoleucine or”, “Data is summarized below” for “Below are the results of this study”, “Table X and” for “table form, which are”, “17.” for “16.”

[9] = system: Caco2 monolayer; assay: Creatine and leucine diffusion across Caco-2 monolayer, sodium/citrate sources (Example II); format: in vitro ADME, human; details: added at 10 mM to creatine monohydrate and leucine
Procedure: More particularly, after 21 days of growth in Corning® Transwell 6 well plat, trans-epithelial electrical resistance (TEER) was measured across the Caco2 monolayer using an EVOM II TEER meter with an Endohm 24SNAP measuring chambers. Cells were considered ready for use if the average TEER value reached approximately 900 Ohm*cm2. The Caco2 monolayer was then equilibrated in DPBS at 37° C. for 15 minutes. The apical solution was then removed and replaced with the various solutions to be tested. Basolateral chambers were sampled at 15, 30, 45, 60, 75 and 90 minutes and replaced with fresh DPBS. All samples were filtered at 0.45 μm and examined by HPLC. The HPLC analysis utilized a 250 mm×4.6 mm, 5 μm Thermo Scientific BDS Hypersil base deactivated C18 column. The mobile phase consisted of 0.5 M ammonium sulphate at a flow rate of 1.5 m/min. Sample detection was performed at 206 nm using a photodiode array. For this Example II, four formulations were studied, with chemicals present at 10 mM:
For the experiments in this study samples from each formulation were monitored apical to basolateral through a Caco-2 membrane registering an average TEER of 1650 Ohm*cm^2.

SMILES: CC[C@H](C)[C@H](N)C(=O)O [Iso-leucine alone, iso-leucine]
permeability shift as a result of the addition of trisodium citrate [2]: substantially similar permeability shift and overall permeability increase to that exhibited by leucine
iso-leucine diffusion across Caco2 ([2]; 15 min): 0.271 μM/cm^2
iso-leucine diffusion across Caco2 ([2]; 30 min): 0.614 μM/cm^2
iso-leucine diffusion across Caco2 ([2]; 45 min): 0.978 μM/cm^2
iso-leucine diffusion across Caco2 ([2]; 60 min): 1.333 μM/cm^2
iso-leucine diffusion across Caco2 ([2]; 75 min): 1.748 μM/cm^2
iso-leucine diffusion across Caco2 ([2]; 90 min): 2.078 μM/cm^2

SMILES: CC(C)C[C@H](N)C(=O)O [Leucine]
Leucine permeation across Caco-2 monolayer ([6]; human, Caco-2, 15 min): 0.036 mg/cm2
Leucine permeation across Caco-2 monolayer ([6]; human, Caco-2, 30 min): 0.052 mg/cm2
Leucine permeation across Caco-2 monolayer ([6]; human, Caco-2, 45 min): 0.078 mg/cm2
Leucine permeation across Caco-2 monolayer ([6]; human, Caco-2, 60 min): 0.106 mg/cm2
Leucine permeation across Caco-2 monolayer ([6]; human, Caco-2, 75 min): 0.128 mg/cm2
Baseline adj for Leucine w/o Na ([6]; human, Caco-2, 90 min): 0.00 mg/cm2
Leucine permeation across Caco-2 monolayer ([6]; human, Caco-2, 90 min): 0.151 mg/cm2
L-Leucine permeability in the presence of trisodium citrate ([4]; Caco-2): enhanced
effect on the permeability of glutathione ([1]; Caco-2): no noticeable effect
permeability of Leucine in the presence of trisodium citrate ([1]; Caco-2): enhanced
L-Leucine permeability in the presence of TSC ([5]; with L-Citrulline): enhanced
L-Leucine permeability in the presence of TSC ([7]; in the presence of sarcosine): enhanced

SMILES: CNCC(=O)O [Sarcosine alone, Sarcosine]
Sarcosine permeability in the presence of TSC [7]: enhanced
sarcosine diffusion across Caco2 ([7]; 15 min): 0.496 μM/cm^2
sarcosine diffusion across Caco2 ([7]; 30 min): 0.405 μM/cm^2
sarcosine diffusion across Caco2 ([7]; 45 min): 0.974 μM/cm^2
sarcosine diffusion across Caco2 ([7]; 60 min): 1.423 μM/cm^2
sarcosine diffusion across Caco2 ([7]; 75 min): 2.102 μM/cm^2
sarcosine diffusion across Caco2 ([7]; 90 min): 1.801 μM/cm^2

SMILES: CC(C)[C@H](N)C(=O)O [Valine alone, Valine]
valine diffusion across Caco2 ([8]; 15 min): 1.388 μM/cm^2
valine diffusion across Caco2 ([8]; 30 min): 1.431 μM/cm^2
valine diffusion across Caco2 ([8]; 45 min): 1.537 μM/cm^2
valine diffusion across Caco2 ([8]; 60 min): 1.682 μM/cm^2
valine diffusion across Caco2 ([8]; 75 min): 1.841 μM/cm^2
valine diffusion across Caco2 ([8]; 90 min): 2.081 μM/cm^2
permeability shift in the presence of trisodium citrate ([8]; compared to iso-leucine and leucine): significantly greater permeability shift and overall higher permeability

SMILES: O=C1O[C@H]([C@@H](O)CO)C([O-])=C1O.[Na+] [sodium ascorbate]
permeation of leucine in the presence of the sodium source ([6]; compared to leucine alone / sodium ascorbate): slight increase

SMILES: [Cl-].[Na+] [sodium chloride]
effect on leucine permeability [9]: did produce an effect
effect on permeability of creatine monohydrate [9]: enhanced

Next, values leading:

Glutathione permeation in the presence of trisodium citrate ([1]; Caco-2): significantly increased
glutathione diffusion across Caco2 ([1]; Caco-2, 15 min): 0.177 μM/cm^2
glutathione diffusion across Caco2 ([1]; Caco-2, 30 min): 0.467 μM/cm^2
glutathione diffusion across Caco2 ([1]; Caco-2, 45 min): 0.731 μM/cm^2
glutathione diffusion across Caco2 ([1]; Caco-2, 60 min): 0.977 μM/cm^2
glutathione diffusion across Caco2 ([1]; Caco-2, 75 min): 1.227 μM/cm^2
glutathione diffusion across Caco2 ([1]; Caco-2, 90 min): 1.456 μM/cm^2
SMILES: N[C@@H](CCC(=O)N[C@@H](CS)C(=O)NCC(=O)O)C(=O)O [Glutathione alone, Glutathione]

arginine diffusion across Caco2 ([3]; Caco-2, 15 min): 0.988 μM/cm^2
arginine diffusion across Caco2 ([3]; Caco-2, 30 min): 1.453 μM/cm^2
arginine diffusion across Caco2 ([3]; Caco-2, 45 min): 2.033 μM/cm^2
arginine diffusion across Caco2 ([3]; Caco-2, 60 min): 2.578 μM/cm^2
arginine diffusion across Caco2 ([3]; Caco-2, 75 min): 3.005 μM/cm^2
arginine diffusion across Caco2 ([3]; Caco-2, 90 min): 3.448 μM/cm^2
L-Arginine permeability in the presence of trisodium citrate ([4]; Caco-2): enhanced
arginine diffusion across Caco2 ([4]; Caco-2, 15 min): 1.007 μM/cm^2
arginine diffusion across Caco2 ([4]; Caco-2, 30 min): 1.511 μM/cm^2
arginine diffusion across Caco2 ([4]; Caco-2, 45 min): 1.999 μM/cm^2
arginine diffusion across Caco2 ([4]; Caco-2, 60 min): 2.432 μM/cm^2
arginine diffusion across Caco2 ([4]; Caco-2, 75 min): 2.982 μM/cm^2
arginine diffusion across Caco2 ([4]; Caco-2, 90 min): 3.237 μM/cm^2
SMILES: N=C(N)NCCC[C@H](N)C(=O)O [L-Arginine alone, L-Arginine]

L-Citrulline change in permeability in the presence of TSC ([3]; 10 mM TSC): did not show any significant change
citrulline diffusion across Caco2 ([3]; 15 min): 2.281 μM/cm^2
citrulline diffusion across Caco2 ([3]; 30 min): 1.428 μM/cm^2
citrulline diffusion across Caco2 ([3]; 45 min): 1.415 μM/cm^2
citrulline diffusion across Caco2 ([3]; 60 min): 2.191 μM/cm^2
citrulline diffusion across Caco2 ([3]; 75 min): 2.457 μM/cm^2
citrulline diffusion across Caco2 ([3]; 90 min): 2.893 μM/cm^2
effect on L-Citrulline permeability by TSC or L-Leucine [5]: no significant effect
citrulline diffusion across Caco2 ([5]; 15 min): 0.846 μM/cm^2
citrulline diffusion across Caco2 ([5]; 30 min): 1.174 μM/cm^2
citrulline diffusion across Caco2 ([5]; 45 min): 1.906 μM/cm^2
citrulline diffusion across Caco2 ([5]; 60 min): 2.381 μM/cm^2
citrulline diffusion across Caco2 ([5]; 75 min): 2.699 μM/cm^2
citrulline diffusion across Caco2 ([5]; 90 min): 3.300 μM/cm^2
SMILES: NC(=O)NCCC[C@H](N)C(=O)O [L-Citrulline alone, L-Citrulline]

Source: patent US11246846B2, “Trisodium citrate compositions having enhanced uptake across digestive mucosa” (priority 2017, dated 2022)
